This is an account of results in patent US20260314597A1, “A NOVEL APPROACH TO INTERFERE IN THE PHENYLPROPANOID BIOSYNTHETIC PATHWAY TO REDUCE PINK-RIB DISORDER IN FRESH LETTUCE” (University of Florida Research Foundation, Inc., priority 2022, published 2026).

Entries after “also recorded” stand apart in the source; their conditions may differ.

Assay [1] concerns chlorogenic acid formation in lettuce midribs. Put plainly: Chlorogenic acid concentration in treated wounded midribs (HPLC). The format is in vivo, lettuce (iceberg, Romaine). Conditions: 5 d at 5° C.; for chlorogenic acid concentration: L-cysteine 4.1 mM or melatonin 4.3 mM; for effect on chlorogenic acid concentration: iceberg and Romaine, vs wounded. From the text: In all tests, experimental setup began immediately upon arrival to the laboratory. 90 outer leaves were randomly selected from 18 to 22 lettuce heads that met commercial and damage-free quality standards. A midrib segment (12.5 cm) was excised from the center of each leaf and excess leaf blade tissue was trimmed parallel to the midrib. This procedure was adapted from the wounding procedure of Cantwell (2016). Each midrib was then partially sliced transversally at 1.3-cm increments along the midrib. Midribs (n=15) were immediately immersed for 30 s in one of five treatment solutions: deionized water (wounded control), L-cysteine (4.1 mM), naringenin (1.8 mM) with 20% dimethyl sulfoxide (DMSO), serotonin (2.8 or 5.7 mM) or melatonin (4.3 mM) with 0.50% DMSO. Immediately following immersion, the midribs for each treatment were patted dry using paper towels and placed (n=5) in a breathable, high-density polyethylene bag (n=3) (Narrow Profile Produce Bags [14×18 inches] Model No. S-19156, Uline®, Pleasant Prairie, WI). Unwounded control midribs were stored in the same manner. To allow for direct comparison, each cut site on each midrib was assigned an initial discoloration value on day 1 based on the coloration of the rib. Samples were stored at 5° C. with 95-98% relative humidity (RH) for 5 d, simulating commercial storage.
Unwounded, wounded, and compound-treated wounded midrib samples were collected for untargeted metabolite analysis to identify global metabolite changes in response to melatonin application and targeted metabolite analysis to quantify chlorogenic acid a major caffeoyl compound in lettuce. For both targeted and untargeted metabolite analyses, fresh samples (500-800 mg) of the midribs from each treatment (n=3) were weighed, then immediately frozen in liquid nitrogen and stored at −80° C. for subsequent metabolite extraction. Frozen samples were extracted with a 50% methanol extraction solution containing a 1:1 (v:v) of methanol with deionized water. Samples were completely submerged in a 1:1.5 (w:v) of the sample weight (mg) to extraction solution volume (μL), respectively, and incubated at 65° C. for 90 min and then centrifuged at 9660×g for 10 min (MC-12 High Speed Micro Centrifuge, Benchmark Scientific, Edison, NJ). The supernatant was transferred to a new tube and filtered with a 0.45 μm filter (Choice, Thermo Scientific, Wilmington, DE). An aliquot of 400 μL was vacuum-dried.
For chlorogenic acid quantification, vacuum-dried samples were resuspended with 50 μL of 50% methanol. A 10 μL volume of extract was analyzed on an UltiMate 3000 High Performance Liquid Chromatography (HPLC) system (Thermo Fisher Scientific, Ward Hill, MA, USA) equipped with a diode array detector (DAD) in the UV-VIS region 200 to 500 nm. The compounds were separated on an Acclaim™ RSLC PA2 column (150 mm×2.1 mm; 2.2 μm) (Thermo Fisher Scientific, Ward Hill, MA, USA) coupled with a C18 guard column (10 mm×3 mm; 5 μm). The mobile phase consisted of solvent A (0.1% formic acid (v/v) in water) and solvent B (100% acetonitrile), and the gradient as follows: 5% to 20% increase of solvent B at 0.3 to 0.4 min, 20% to 25% increase solvent B at 5.25 to 12.5 min, 25% to 95% increase solvent B at 12.5 to 16.5 min, and 95% solvent B at 16.5 to 20 min. The flow rate was 0.4 mL min^−1 and the column temperature was 40° C. The level of chlorogenic acid was quantified based on the peak area at 328 nm and the standard curve using authentic standard (Sigma Aldrich; St. Louis, MO, USA).
The imaging data (a* value), enzyme activity (PAL and PPO), and metabolite (chlorogenic acid) results were expressed as mean±standard error and analyzed by lettuce type (iceberg or Romaine). For imaging data, an unpaired t-test was used to identify differences within a treatment throughout storage and among treatment groups at each time point. Treatment groups were defined as wounded, unwounded, L-cysteine, and melatonin. […]

A further assay has as its system fresh-cut cherimoya. Conditions: L-cysteine 0.5% or 41.3 mM; 0° C.; cited from earlier work.
A further assay concerns fresh-cut artichoke. Conditions: L-cysteine 0.5% or 41.3 mM; cited from earlier work.
The subject of assay [2] is chlorogenic acid concentration in homogenized lettuce tissue. Conditions: L-cysteine; 24 h at 25° C.; cited from earlier work.
Assay [3] concerns litchi fruit. Conditions: melatonin 0.4 mM, cited from earlier work.
Another assay has as its system cassava roots. Conditions: cited from earlier work.
Another assay deals with peach fruit. Conditions: cited from earlier work.
The test system of assay [4] is litchi fruit. Conditions: cited from earlier work.
A further assay relates to pear flesh. Conditions: melatonin 0.1 mM, cited from earlier work.
Assay [5] concerns nonenzymatic antioxidants, such as phenolics, flavonoids, and anthocyanins. Conditions: melatonin; cited from earlier work.
The mark [6] stands for this setting: melatonin, cassava root, vs untreated.

Take `N[C@@H](CS)C(=O)O` [L-cysteine]: the chlorogenic acid concentration is 3.11 µg/g in [1] (Romaine), 1.55 µg/g in [1] (iceberg) and “reduced chlorogenic acid concentration” in assay [2]. Besides, in assay [1], the “effect on chlorogenic acid concentration” value is on record as “neither L-cysteine nor melatonin significantly reduced chlorogenic acid concentration”. Further, the “delay of pulp browning” value with fresh-cut cherimoya was “up to 12 d”. Besides, in the assay with fresh-cut artichoke, the “effect on browning of artichoke” value is reported as “no effect; also recorded: developed browning or became yellow”.

In the case of `COc1ccc2[nH]cc(CCNC(C)=O)c2c1` [melatonin], the chlorogenic acid concentration in [1] (Romaine) worked out at 3.11 µg/g; in assay [1] (iceberg), 1.55 µg/g. Also, the “effect on chlorogenic acid concentration” value in assay [1] is given as “neither L-cysteine nor melatonin significantly reduced chlorogenic acid concentration; also recorded: neither enzyme activity (PAL or PPO) nor chlorogenic acid concentration were impacted; also recorded: did not significantly affect PAL or PPO enzyme activities nor formation of chlorogenic acid”. Besides, the “delay of pericarp browning” value in the assay on litchi fruit [3] (25° C.) is 4 days. Moreover, the “discoloration of litchi pericarp” value in the assay on litchi fruit [3] (up to 6 d) is “significant decrease”. Besides, the “key enzymes in the melatonin biosynthesis pathway” value with cassava roots (cassava) is listed as “Upregulation”; with litchi fruit [4] (melatonin, litchi) it was “Upregulation”. Moreover, the antioxidant capacity result with cassava roots (setting [6]) is listed as “increased”; in the assay on peach fruit (melatonin, vs untreated) it was “increased”. Further, the “reactive oxygen species (ROS) levels” value was “declined” in the assay with cassava roots (setting [6]) and “declined” in the assay on peach fruit (melatonin, vs untreated). For the same compound, the “antioxidative enzymes that reduce hydrogen peroxide accumulation” value in the assay with cassava roots (melatonin, cassava) is “activated”. Besides, the lipid peroxidation entry with peach fruit (melatonin 0.1 mM, via increased enzyme activity) is reported as “inhibited lipid peroxidation”. For the same compound, the senescence result in the assay on peach fruit (melatonin 0.1 mM) is listed as “delayed senescence”. In the assay on peach fruit (melatonin 0.1 mM), the total phenolics result is “maintained total phenolics”. Further, the “increase in total phenolics” value with litchi fruit [4] (melatonin 0.4 mM, litchi pericarp, up to 6 d) is recorded as “approximately 40%”. In addition, in the assay with litchi fruit [4] (melatonin 0.4 mM, litchi), the “activity of several antioxidants” value is listed as “increased”. For the same compound, the free radical development entry with litchi fruit [4] (melatonin 0.4 mM, litchi) was “reduced”. For the same compound, the total phenolic content entry in the assay on pear flesh (after 4 d at 4° C.) is on record as “higher”. For the same compound, in the assay with pear flesh (pear flesh, 8 d at 4° C.), the inhibition of browning entry was “no inhibition of browning”. Further, in assay [5], the “nonenzymatic antioxidants (phenolics, flavonoids, anthocyanins)” value is “enhances nonenzymatic antioxidants”.
